Reference: patent publication US20080096943A1, “Organic Compunds” (priority 2004, published 2008)

Target: T1, human CCR-3 (Homo sapiens, UniProt P51677)
T1 construct: expressed in transfected cells; membranes used
T1 sequence (P51677 1-355): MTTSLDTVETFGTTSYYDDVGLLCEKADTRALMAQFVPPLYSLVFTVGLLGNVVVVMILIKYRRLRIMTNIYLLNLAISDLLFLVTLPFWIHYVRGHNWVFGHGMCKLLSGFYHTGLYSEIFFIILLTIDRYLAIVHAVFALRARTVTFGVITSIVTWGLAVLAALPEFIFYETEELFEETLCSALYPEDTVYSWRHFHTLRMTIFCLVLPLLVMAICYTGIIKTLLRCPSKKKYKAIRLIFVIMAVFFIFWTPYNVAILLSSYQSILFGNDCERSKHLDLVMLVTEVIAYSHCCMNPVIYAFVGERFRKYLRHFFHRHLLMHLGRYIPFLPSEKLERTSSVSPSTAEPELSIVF
Assay: [125I]-human eotaxin binding to CCR-3, SPA assay
Conditions: inhibition of [125I]-human eotaxin binding; membranes of RBL-2H3 cells stably expressing CCR3; 4 hours at room temperature
Source text: Recombinant cells expressing human CCR-3 are captured by wheatgerm agglutinin (WGA) polyvinyltoluidene (PVT) SPA beads (available from Amersham), through a specific interaction between the WGA and carbohydrate residues of glycoproteins on the surface of the cells. [^125I]-human eotaxin (available from Amersham) binds specifically to CCR-3 receptors bringing the [^125I]-human eotaxin in close proximity to the SPA beads. Emitted â-particles from the [^125I]-human eotaxin excite, by its proximity, the fluorophore in the beads and produce light.
Preparation of Assay Buffer: 5.96 g HEPES and 7.0 g sodium chloride are dissolved in distilled water and 1 M aqueous CaCl2 (1 ml) and 1M aqueous MgCl2 (5 ml) are added. The pH is adjusted to 7.6 with NaOH and the solution made to a final volume of 1 l using distilled water. 5 g bovine serum albumin and 0.1 g sodium azide are then dissolved in the solution and the resulting buffer stored at 4° C. […]
Preparation of membranes: Confluent rat basophil leukaemia (RBL-2H3) cells stably expressing CCR3 are removed from tissue culture flasks using enzyme-free cell dissociation buffer and resuspended in phosphate-buffered saline. […] The resulting scintillations are counted using a Canberra Packard TOPCOUNT™ scintillator counter, each well being counted for 1 minute. […]

IC50 [nM]	SMILES
1540	Cc1noc(C)c1NC(=O)NCCCCN(C)Cc1ccc(F)cc1 [Example 1, 1-(3,5-Dimethyl-isoxazole-4-yl)-3-[4-[(4-fluorobenzyl)methylamino]-butyl]-urea]
49	CN(CCCCNC(=O)Nc1ccc(F)c(F)c1)Cc1ccc(F)cc1 [Example 2, 1-(3,4-difluorophenyl)-3-{4-[(4-fluorobenzyl)methylamino]-butyl}-urea]
